Assay [1] deals with T1, PPARγ (Homo sapiens, UniProt P37231).
T1 construct: pFA-CMV-hPPARγ-LBD; expressed in transfected cells; host or cells: HEK293T
T1 sequence (P37231 238-503 limits assumed): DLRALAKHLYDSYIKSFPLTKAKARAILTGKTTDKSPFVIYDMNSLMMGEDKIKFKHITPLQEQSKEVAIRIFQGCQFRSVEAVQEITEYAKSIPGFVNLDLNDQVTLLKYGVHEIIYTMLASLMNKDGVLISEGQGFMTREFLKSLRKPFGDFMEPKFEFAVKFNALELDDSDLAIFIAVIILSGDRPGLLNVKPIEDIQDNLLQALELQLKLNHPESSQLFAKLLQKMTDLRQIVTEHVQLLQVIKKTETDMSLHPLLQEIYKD
Kind of assay: Gal4-hybrid reporter gene assay PPARγ in HEK293T cells. The class given is cell-based. The source says:
(§1) Hybrid reporter gene assays for PPARα/γ/δ, LXRα/β, RXRα/β/γ, RARα/β/γ, VDR and PXR Plasmids: The Gal4-fusion receptor plasmids pFA-CMV-hPPARα-LBD^52, pFA-CMV-hPPARγ-LBD^52, pFA-CMV-hPPARδ-LBD^52, pFA-CMV-hLXRα-LBD^32 and pFA-CMV-hLXRβ-LBD^32 have been reported previously. […] Frame and sequence of all fusion receptors were verified by sequencing. pFR-Luc (Stratagene) was used as reporter plasmid and pRL-SV40 (Promega) for normalization of transfection efficiency and cell growth.
Assay procedure: HEK293T cells were grown in DMEM high glucose, supplemented with 10% FCS, sodium pyruvate (1 mM), penicillin (100 U/mL) and streptomycin (100 μg/mL) at 37° C. and 5% CO2. The day before transfection, HEK293T cells were seeded in 96-well plates (2.5·10^4 cells/well). Before transfection, medium was changed to Opti-MEM without supplements. Transient transfection was carried out using Lipofectamine LTX reagent (Invitrogen) according to the manufacturer's protocol with pFR-Luc (Stratagene), pRL-SV40 (Promega) and pFA-CMV-hRXRα-LBD. 5 h after transfection, medium was changed to Opti-MEM supplemented with penicillin (100 U/mL), streptomycin (100 μg/mL), now additionally containing 0.1% DMSO and the respective test compound or 0.1% DMSO alone as untreated control. Each concentration was tested in triplicates and each experiment was repeated independently at least three times. […] Luminescence was measured with an Infinite M200 luminometer (Tecan Deutschland GmbH). […] Fold activation was obtained by dividing the mean RLU of a test compound at a respective concentration by the mean RLU of untreated control. Relative activation was obtained by dividing the fold activation of a test compound at a respective concentration by the fold activation of a respective reference agonist at 1 μM (PPARα: GW7647; PPARγ: pioglitazone; PPARδ: L165,041; LXRα/β: T0901317; RXRs: bexarotene; RARs: tretinoin; VDR calcitriol; PXR: SR12813).
Background: In a reporter assay the amount or activity of a reporter protein is the signal.

The target of assay [2] is T2, recombinant human sEH (Homo sapiens, UniProt P34913).
T2 sequence (P34913 1-555): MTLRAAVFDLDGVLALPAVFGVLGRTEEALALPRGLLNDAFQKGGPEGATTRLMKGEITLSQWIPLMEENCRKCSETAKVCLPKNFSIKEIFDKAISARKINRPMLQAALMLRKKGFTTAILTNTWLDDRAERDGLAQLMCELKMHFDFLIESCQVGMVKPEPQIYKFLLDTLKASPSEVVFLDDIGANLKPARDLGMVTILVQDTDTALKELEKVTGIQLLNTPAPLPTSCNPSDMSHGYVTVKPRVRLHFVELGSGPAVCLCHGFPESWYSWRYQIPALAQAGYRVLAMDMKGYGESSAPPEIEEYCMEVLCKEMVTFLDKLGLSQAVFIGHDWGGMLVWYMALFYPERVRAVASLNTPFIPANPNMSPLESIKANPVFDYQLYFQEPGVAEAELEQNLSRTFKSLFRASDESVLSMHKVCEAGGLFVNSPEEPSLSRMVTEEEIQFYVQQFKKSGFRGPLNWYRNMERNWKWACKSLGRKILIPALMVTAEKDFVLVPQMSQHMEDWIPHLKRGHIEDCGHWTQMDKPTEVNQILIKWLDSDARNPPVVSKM
The assay can be described thus: fluorescence-based sEH activity assay with PHOME substrate. The class given is biochemical. The source says:
This assay is based on a reporter construct containing a firefly luciferase under the control of the FXR response element from bile salt export protein (BSEP). FXR and its hetero dimer partner retinoid X receptor (RXR) as expression constructs under the control of a CMV promoter as well as a constitutively expressed renilla luciferase (SV40 promoter) for normalization and toxicity control were co-transfected. […] The sEH inhibitory potency of the test compounds was quantified in a fluorescence-based assay using recombinant enzyme and the fluorogenic sEH substrate PHOME^37 that is hydrolyzed to a fluorescent 6-methoxynaphtaldehyde by sEH.
The sEH inhibitory potency of the compounds were determined in a fluorescence-based 96-well sEH activity assay using recombinant human enzyme^50,51. Non-fluorescent PHOME (3-phenylcyano-(6-methoxy-2-naphthalenyl)methyl ester 2-oxiraneacetic acid; Cayman Chemicals) which can be hydrolyzed by the sEH to fluorescent 6-methoxynaphthaldehyde served as substrate. Recombinant human sEH (in Bis-Tris buffer, pH 7, with 0.1 mg/mL BSA containing a final concentration of 0.01% Triton-X 100) was pre-incubated with test compounds (in DMSO, final DMSO concentration: 1%) for 30 min at room temperature. […] A blank control (no protein and no compound) as well as a positive control (no compound) were executed. All experiments were conducted in triplicate and repeated in at least three independent experiments. For IC50 calculation, dose-response curves of increasing compound concentrations were recorded.

Assay [3] deals with T3, RXRα (Homo sapiens, UniProt P19793).
T3 construct: hRXRα-P19793, residues 225-462; expressed in transfected cells; host or cells: HEK293T
T3 sequence (P19793 225-462): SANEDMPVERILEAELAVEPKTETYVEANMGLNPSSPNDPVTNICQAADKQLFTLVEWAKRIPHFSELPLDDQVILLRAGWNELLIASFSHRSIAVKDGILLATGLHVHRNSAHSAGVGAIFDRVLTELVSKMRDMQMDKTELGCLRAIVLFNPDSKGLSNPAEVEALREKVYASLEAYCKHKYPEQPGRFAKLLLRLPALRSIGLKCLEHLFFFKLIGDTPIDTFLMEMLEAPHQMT
Kind of assay: Gal4-hybrid reporter gene assay RXRα in HEK293T cells. Format: cell-based. The following applies: 10 μM.
Source text: as §1
Assay procedure: HEK293T cells were grown in DMEM high glucose, supplemented with 10% FCS, sodium pyruvate (1 mM), penicillin (100 U/mL) and streptomycin (100 μg/mL) at 37° C. and 5% CO2. The day before transfection, HEK293T cells were seeded in 96-well plates (2.5·10^4 cells/well). Before transfection, medium was changed to Opti-MEM without supplements. Transient transfection was carried out using Lipofectamine LTX reagent (Invitrogen) according to the manufacturer's protocol with pFR-Luc (Stratagene), pRL-SV40 (Promega) and pFA-CMV-hRXRα-LBD. 5 h after transfection, medium was changed to Opti-MEM supplemented with penicillin (100 U/mL), streptomycin (100 μg/mL), now additionally containing 0.1% DMSO and the respective test compound or 0.1% DMSO alone as untreated control. […] Luminescence was measured with an Infinite M200 luminometer (Tecan Deutschland GmbH). […]

Read-outs that look alike come from different tables or passages of the source.

Take `CC(C)(C)c1ccc(C(=O)NCc2ccc(NS(C)(=O)=O)cc2Cl)cc1` [compound 57, 4-(tert-Butyl)-N-(2-chloro-4-(methylsulfonamido)benzyl)benzamide]: the “selectivity for FXR amongst nuclear receptors” value in assay [1] is not below 720. In assay [1] (relative to pioglitazone at 1 μM), this molecule displayed a PPARγ max. activation of 30±1%. Moreover, in assay [1] (weak partial agonism), the EC50 – broadly, the concentration at which the effect is half-maximal – is 14700 ± 900 nM. Moreover, the IC50 (as a rule, the concentration that inhibits the measured activity by half) in assay [2] (read-out: IC50 for sEH inhibition) amounted to 4.1 ± 0.4 nM; in assay [2] (recombinant human sEH, PHOME, read-out: sEH inhibition IC50) it was 4.1 ± 0.4 nM. For the same molecule, in assay [3], the “activity on RXRα” value was “inactive”.

Values taken from patent US20200172473A1, “DUAL MODULATORS OF FARNESOID X RECEPTOR AND SOLUBLE EPOXIDE HYDROLASE” (JOHANN WOLFGANG GOETHE-UNIVERSITÄT FRANKFURT AM MAIN, priority 2017, published 2020).
